We go through one substance from patent publication US20060062859A1, “Composition and method to optimize and customize nutritional supplement formulations by measuring genetic and metabolomic contributing factors to disease diagnosis, stratification, prognosis, metabolism, and therapeutic outcomes” (priority 2004, published 2006).

For assay [1] the following is noted: after six months; cited from earlier work.
The conditions of assay [2]: cited from earlier work.
Assay [3] can be described thus: Chromium picolinate vs placebo in obese subjects genotyped for DRD2 (scale weight, DEXA body fat). It counts as in vivo, human. To be noted: for change in fat weight, body weight, percent change in weight, body weight change in kg: A2/A2 carriers; for any parameter of weight change: subjects possessing a DRD2 A1 allele (A1/A1 or A1/A2). The procedure: A Case Study: Chromium and Dopamine Genes. While there is still controversy regarding the effects of chromium salts (picolinate and nicotinate) on body composition and weight loss in general, recent work seems to support the positive change in body composition in humans. The inventors embarked on a study with chromium picolinate to test out the principles of nutrigenomics. In this study they genotyped obese subjects for the dopamine D2 receptors gene (DRD2). The subjects were assessed for scale weight and for percent body fat. The subjects were divided into matched placebo and chromium picolinate (CrP) groups. […] Moreover, the inventors propose for the first time that mixed effects now observed with CrP administration in terms of body composition, may be resolved by typing the patient via DRD2 genotyping prior to treatment with chromium salts.
To reiterate, Blum and associates found similar evidence with chromium picolinate, for the role of genes in physiological response with nutritional supplements. While there still is controversy regarding the effects of chromium salts (picolinate and nicotinate) on body composition and weight loss in general, recent unpublished work seems to support the positive change in body composition in humans. In consideration of the above study, Chen and Blum and others decided to genotype 130 overweight subjects for the dopamine D2 receptor gene. The subjects were assessed for scale weight and for percent body fat using dual energy X-ray absorptionmetry (DEXA R). The subjects were divided into matched placebo and chromium picolinate groups (400 μg. per day). The sample was separated into two independent groups; those with either an A1/A1 or A1/A2 allele and those with only the A2/A2 pattern. […] Moreover, we propose for the first time that mixed effects now observed with chromium picolinate in terms of body composition, may be resolved by typing the patient via dopamine D2 receptor genotyping prior to treatment with not only chromium salts, but with other nutritional supplements as well.
In terms of weight loss ingredients one nutrient Chromium Picolinate, one of the most widely used ingredient in the weight management field, pharmacogenomically responds differentially based on the DRD2genotype. Dr. Blum is current in revision on a publication detailing these findings. Here are some details on the abstract: • Thomas J H Chen, Kenneth Blum, * Gilbert Kaats, E. R. Braverman. Arthur Eisenberg, M. Sherman. K. Davis, D E Comings, R. Wood, D. Pullin. CHROMIUM PICOLINATE A PUTATIVE ANTI-OBESITY NUTRIENT INDUCES CHANGES IN BODY COMPOSITION AS A FUNCTION OF THE Taq1 DOPAMINE D2 RECEPTOR POLYMORPHISMS. International J. Of Eating Disorders (in revision). • Objective: There is still controversy regarding the effects of chromium salts (picolinate and nicotinate) on body composition and weight loss in humans. Thus, we decided to test the hypothesis that typing the obese patients by genotyping the DRD2 gene prior to treatment with Chromium Picolinate (CrP) would result in a differential treatment outcome. • Methods: We genotyped obese subjects for the dopamine D2 receptors gene (DRD2) utilizing standard PCR techniques. The subjects were assessed for scale weight and for percent body fat using dual energy X-ray absorptiometry (DEXAR). The subjects were divided into matched placebo and CrP groups (400 ug. per day) accordingly. The sample was separated into two independent groups. Those with either an A1/A1 or A1/A2 allele or those with only the A2/A2 allelic pattern.

For assay [4] the following is noted: 400 mcg, cited from earlier work.
For assay [5] the following is noted: 200 and 400 mcg, cited from earlier work.

Like-named read-outs stand apart in the source and are kept apart here.

Take Chromium Picolinate: the lean body mass entry in assay [1] is reported as “After six months the CrP group had an increase in lean”. Moreover, the “insulin response to an oral glucose load” value in assay [2] (exercise training combined with supplementation) is reported as “lowered insulin response to an oral glucose load”. In addition, the body weight result in assay [2] (supplementation alone) is recorded as “CrP supplementation resulted in significant weight gain,”. Besides, the “change in fat weight, body weight, percent change in weight, body weight change in kg” value is “changes in kgms were all significant in A2/A2 group,” in assay [3]; “significant in A2/A2 group and non” in assay [3] (listed as CrP); “all significant” in assay [3] (listed as chromium picolinate). The “any parameter of weight change” value in assay [3] is listed as “no significance was found”; in assay [3] (listed as CRP), “do not respond”; in assay [3] (listed as CrP), “no significance was found”. Besides, the “reduction in body fat vs placebo” value in assay [4] (p < 0.001) was “(p < 0.001) and body fat (p < 0.004), had a greater”. For the same substance, in assay [4] (p < 0.001), the “weight lost vs placebo” value was 400 mcg CrP group lost significantly more weight. In assay [4] (p < 0.004), the body composition result is reported as “reduction in body fat (p < 0.001), significantly improve”. Further, the “changes in Body Mass composition indicies compared with placebo” value in assay [5] was 200 and 400 mcg of CrP brought about significant; in assay [5] (listed as chromium picolinate), “body composition improvement, loss of body fat, gain in nonfat mass”.
